Usually melting point stands for the temperature of the solid-liquid transition. As to `CCCCCCCCCCCCSC(=O)CS(=O)(=O)Nc1c(C(C)C)cccc1C(C)C`, the melting point lay in the range of 58 to 60 °C.
`O=P(O)(O)C(O)C(O)P(=O)(O)O` (stereo unspecified): the melting point fell in the range of 209 to 211 °C.
Turning to `Cn1cnc2c1c(=O)n(CCCCC(=O)CBr)c(=O)n2C`, the melting point was 125 to 135 °C.
The value for `O=C(O)CCCc1oc(-n2cnc3ccccc32)nc1-c1ccc(Cl)cc1` was 199 to 200 °C; that for `Cc1cc2c([C@@H]3C[C@H]3CNC(=O)C3CC3)cccn2n1` (relative stereo) was 124 to 128 °C; that for `CCOC(=O)c1oc2c(C(=O)NCCCN3CCN(c4cc(Cl)ccc4OC)CC3)cccc2c(=O)c1C` was 107 to 115 °C.
On to `CC1Oc2cc3nc(S)[nH]c3cc2O1`, for which the melting point was > 300 °C.
The value for `O=c1c(CCCCCc2ccncc2)cc2cccnc2n1-c1cccc([N+](=O)[O-])c1` was 189 to 190 °C.
Molecule `O=c1[nH]nc(-c2cc(Cl)ccc2O)n1-c1ccc(C(F)(F)F)cc1` registered a melting point of 236 to 238 °C.
Molecule `CC(=O)NNC(=O)NC1c2ccccc2Oc2ccccc21` had a melting point of 226 to 228 °C.
`COC(=O)c1[nH]cc(C(=O)NCc2ccc(F)cc2)c(=O)c1OC` displayed a melting point of 242 to 244 °C.
The value for `CC1(O)OC(=O)C(c2c(F)cc(F)cc2F)=C1Cc1ccc(Cl)cc1` (stereo unspecified) was 127 to 129 °C.
As for `CC(=O)SCC(Cc1ccc(F)cc1)C(=O)Nc1cccc(C(=O)O)c1` (stereo unspecified), the melting point is 172 to 174 °C.
The molecule `CC(=O)c1ccccc1C(O)=S` returned a melting point of 127 to 129 °C.
On to `FC(F)(F)c1cccc(CSc2nnc(-c3ccc4[nH]ncc4c3)o2)c1`, for which the melting point is 159 to 160 °C.
Take `CCOC(=O)c1c(NCCc2ccccc2)n[nH]c1C`: the melting point fell in the range of 138 to 139 °C.
The same measure for `Cn1ncnc1-n1cc(C(=O)O)c(=O)c2cc(F)c(Cl)nc21`: 238 to 242 °C; for `CCOC(=O)C=Cc1cc(Br)cc(C(O)c2ccc(F)cc2)c1` (stereo unspecified): 82 to 84 °C.
In turn, `Cc1c[nH]c2ccc(C#N)cc12` returned a melting point of 110 to 112 °C.
In the case of `O=C(Nc1cccc(C(F)(F)F)c1)c1ccccc1NCc1ccc(=O)[nH]c1`, the melting point is 171 to 172 °C.
`C=CS(=O)(=O)NC(=O)Nc1nc(C)cc(C)n1` yielded a melting point of 131 to 133 °C.
Turning to `O=C(N[C@@H](Cc1c[nH]c2ccccc12)C(=O)O)c1ccc(Cl)cc1`, the melting point is 100 to 102 °C.
`OC1(C#Cc2ccc(-c3ccc(F)cc3)cc2)CN2CCC1CC2` (stereo unspecified) showed a melting point of 232 to 233 °C.
In turn, `Cc1cc(-n2cncn2)c2cccc(OCc3c(Cl)ccc(S(=O)(=O)N4CCC[C@H]4C(=O)O)c3Cl)c2n1` came in with a melting point of 146 °C.
`CN(c1cccc2cc(-c3ncc(CN4CCS(=O)(=O)CC4)s3)[nH]c12)S(=O)(=O)c1cccs1` gave a melting point of 225 to 226 °C.
For `COC(=O)CCc1cc2cc(Cl)ccc2n1S(=O)(=O)c1ccc(C(C)(C)C)cc1`, the melting point lay in the range of 130 to 133 °C.
Regarding `COC(=O)c1cccc(OCC(=O)NN=C2C(=O)Nc3ccc(I)cc32)c1`, the melting point is 237 °C.
The same measure for `Cc1cc([N+](=O)[O-])ccc1C(=O)Nc1ccc2ccc(Cl)nc2n1`: 229 °C; for `Cc1nc[nH]c1CSCCNc1nc(C)c(-c2ccccc2)c(=O)[nH]1`: 216 to 218 °C.
As for `Cc1ccccc1C(=O)CN1C(=O)C(NC(=O)Nc2cccc(CC(O)=S)c2)CN(C(=O)C(C)(C)C)c2ccccc21` (stereo unspecified), the melting point was in the range of 127 to 130 °C.
`CCCCCc1ccc(-c2cnc(-c3ccc(C#N)cc3)nc2)cc1` registered a melting point of 126 °C.
As for `COc1ccc(S(=O)(=O)CNC=O)cc1`, the melting point is 105 to 107 °C.
Regarding `CC(=O)NC12CCC(CC1)C2(C)C`, the melting point was 133 to 134 °C.
In turn, `CCOC(=O)c1nc(NC)sc1-c1nc2ccccn2c1C` came in with a melting point of 183 to 185 °C.
Molecule `Cc1ccc(C(=O)O)c(OC(=O)C=Cc2ccccc2)c1` registered a melting point of 156 to 157 °C.
In turn, `Clc1ccc2c(C3CCNCC3)n[nH]c2c1` displayed a melting point of 174 to 176 °C.
As to `CC(C)(CO)C(O)(Cn1cncn1)c1ccc(F)cc1F` (single isomer, unassigned; (+)), the melting point is 116 to 118 °C.
The molecule `CCS(=O)(=O)N(CC(=O)Nc1ccncc1)C1CC(C)(C)Oc2ccc(F)cc21` (stereo unspecified) returned a melting point of 195 °C.
In turn, `CCCCS(=O)(=O)Cc1ccc(C(=O)Nc2ccc3cc(CN4CCCC4)cnc3c2C)cc1` yielded a melting point of 199 °C.
Take `CCOC(=O)Nc1cc(OC(C)C)c(Cl)cc1F`: the melting point was in the range of 89 to 91 °C.
As to `CCOC(=O)C1=CC(C2CC2)c2c(ccc(-c3cc4c(s3)C(O)CCC4)c2OC)C1=O` (stereo unspecified), the melting point is 183 to 185 °C.
`CCNC(=O)N1CCC(c2[nH]nc3c2C(=O)c2c(NC(=O)NN4CCOCC4)cccc2-3)CC1` yielded a melting point of 215 to 216 °C.
`CCOC(=O)c1cnc2cc(Cl)ccc2c1Cl` gave a melting point of 81 to 82 °C.
For `NC(CCCSc1nccc(NC(N)=NCC(F)(F)F)n1)=NO`, the melting point was 137 to 139 °C.
The value for `Cc1oc(C2CCCCC2)nc1CC(=O)O` was 102 to 103 °C; that for `CCOC(=O)CNC(=O)c1ncc(O)cc1O` was 96 to 98 °C.
Consider `CC1(C)CCc2c(N3CCSCC3)nc3sc4c(NCc5ccccn5)ncnc4c3c2C1`, for which the melting point was 225 to 226 °C.
`Cc1nnc(-c2ccnc(Nc3cccc(C(F)(F)F)c3)c2)o1` returned a melting point of 217 to 218 °C.
For the molecule `CN1CCN(C(=O)C(=O)Nc2cc(C#N)ccc2O)CC1`, the melting point amounted to 256 °C.
As to `Cn1c(COc2cccc([N+](=O)[O-])c2)nc2ccccc21`, the melting point lay within 183 to 185 °C.
Take `O=C(NCc1ccc(C=NNO)cc1)C1Cc2ccccc2N1S(=O)(=O)c1ccc(-c2cccc(C(F)(F)F)c2)cc1` (stereo unspecified): the melting point was in the range of 110 to 115 °C.
Molecule `CC(C)Oc1c(-c2ccc(S(N)(=O)=O)cc2)cnn(CC(F)(F)F)c1=O` showed a melting point of 158 to 160 °C.
As for `Fc1ccc(C(Cl)(Cn2cncn2)C(F)(F)F)c(F)c1` (stereo unspecified), the melting point fell in the range of 87 to 88 °C.
The molecule `COC(=S)c1ccc(C)c(C2=NOCC2)c1C` returned a melting point of 109 to 111 °C.
`Oc1ccc(C2=C(c3ccc(OCCCCCSCCCC(F)(F)C(F)(F)F)cc3)c3ccc(O)cc3CCC2)cc1` displayed a melting point of 157 to 158 °C.
On to `O=C(Cl)N1CCC(N2CCCCC2)CC1`, for which the melting point was determined as 63.8 °C.
The molecule `Cc1c(-c2cccnc2)ccc2c(=O)c(C(=O)O)cn(C3CC3)c12` gave a melting point of 247 °C.
Turning to `COc1cc(Nc2nccc(-c3cccc(NC(=O)c4cccnc4)c3)n2)cc(OC)c1OC`, the melting point was 140 to 143 °C.
On to `CC(=O)Nc1ccc(N2N=C(C)CC2=O)cc1`, for which the melting point was found to be 230 °C.
As for `FC(F)c1cc(-c2ccc(C(F)(F)F)cc2)nc2c(-c3ccncc3)cnn12`, the melting point is 222 °C.
`N#CCc1c(Cl)cccc1Br` displayed a melting point of 82 to 84 °C.
Take `OCc1nc2ccc(Cl)nc2[nH]1`: the melting point is 224 to 226 °C.
`CC(C)(C)OC(=O)c1ccc(NC2CCc3cc4nc(CO)[nH]c(=O)c4cc32)cc1` (racemic) gave a melting point of 265 to 266 °C.
The molecule `O=C1CC(C(=O)O)Oc2ccccc21` (stereo unspecified) showed a melting point of 170 to 171 °C.
Take `CC(=O)N(C)c1cc(Cl)ccc1C(=O)c1cnoc1C1CC1`: the melting point was 106 to 108 °C.
The value for `Fc1ccc(Cl)cc1-c1nnn[nH]1` was 124 °C.
In turn, `Cc1ccc([C@@H](Sc2cc(C)ccc2N)[C@H](O)C(N)=O)cc1` yielded a melting point of 145 to 146 °C.
The value for `COc1ccc(C(=O)Nc2ccccc2)cc1NS(=O)(=O)c1cccs1` was 180 to 183 °C.
Consider `COCCc1cccc2oc(C(=O)O)c(C)c12`, for which the melting point lay within 138 to 140 °C.
Molecule `Cc1ccc(CNC(=O)c2ccc3n2Cc2ccccc2N(C(=O)CSc2ccc(Br)cc2)C3)cc1` came in with a melting point of 131 to 132 °C.
The molecule `N#CCc1cccc(-c2ccc3c(c2)C2(CCCCC2)C(=O)N3)c1` came in with a melting point of 190 to 193 °C.
`Brc1ccc2c(c1)C(c1ccc(Oc3ccccc3)cc1)(c1ccc(Oc3ccccc3)cc1)c1cc(Br)ccc1-2` showed a melting point of 178 to 180 °C.
For `COc1ccc(C(=O)C[N+](=O)[O-])c(O)c1`, the melting point was in the range of 138 to 140 °C.
In turn, `CSc1sc(C(=O)N(C)C2CCCCC2)c2c1-c1oncc1C(C)(C)C2` showed a melting point of 150 to 153 °C.
The value for `CN1C(=O)C(NC(=O)CCc2ccc(Cl)cc2Cl)N=C(c2ccccc2)c2ccncc21` (stereo unspecified) was 220 to 221 °C; that for `COc1ccc(C(C)C)c(NC(=O)CN2CCN(CCCSc3nc4c(C)c(Cl)cc(C(C)C)c4o3)CC2)c1C(C)C` was 126 to 127 °C; that for `CC(C(=O)O)c1ccc(C=C2CCCC2=O)cc1` (stereo unspecified) was 106 to 107 °C.
For `CC(=O)Nc1cc(O)ccc1-c1cc(=O)c2ccccc2o1`, the melting point is 253 to 255 °C.
Turning to `COc1ncnc2c1C(c1cccc([N+](=O)[O-])c1)C(C(=O)OC(C)C)=C(C)N2` (stereo unspecified), the melting point fell in the range of 212 to 213 °C.
The same measure for `NC(=S)Nc1ccc2ccccc2n1`: 179 to 180 °C; for `CCOC(C)O[C@H]1C(=O)N(C(=S)Nc2ccccc2)[C@H]1c1ccccc1` (stereo partly specified): 108 to 112 °C.
The value for `c1ccc2c(c1)CCc1c-2noc1N1CCN(Cc2c[nH]c3ncccc23)CC1` was 248 to 250 °C.
As for `NC(=O)c1ccc(CCCOCCCCCCBr)cc1`, the melting point lay in the range of 79 to 82 °C.
Take `O=C(O)COc1ccc2c(-c3ccc(Cl)cc3)noc2c1Cl`: the melting point was 254 to 257 °C.
`Cc1c(-c2ccccc2)nn(C)c1C(=O)O` displayed a melting point of 161 to 163 °C.
On to `N#Cc1ccc(-c2ccc(I)cc2)cc1`, for which the melting point was in the range of 162 to 168 °C.
For the molecule `CC#Cc1ccc(-c2ccc(-c3ccc(CCCCC)c(F)c3F)cc2)cc1`, the melting point was determined as 127 °C.
The same measure for `CCCOC(C)c1cccc2[nH]c3cnc(C(=O)OCC)c(COC)c3c12` (stereo unspecified): 127 to 130 °C; for `CC(=O)Oc1cc(OC(C)=O)c2ccc(=O)[nH]c2c1`: 230 to 232 °C.
In turn, `CC(NC(=O)[C@@H](N)C(C)C)c1cc2ccccc2s1` (stereo partly specified) returned a melting point of 70 to 71 °C.
The value for `Nc1ccc(SCc2cnc3ccccn23)cc1` was 119 to 121 °C.

The values above are taken from a melting point compilation (Tetko et al.; mined from patent text by program, amines drawn as free bases though some values may be those of a salt).
